What all share (assay type): functional
One experiment relates to MDA-MB-231. The experiment is described as follows: Growth inhibition of human MDA-MB-231 cells after 72 hrs by sulforhodamine B assay. The settings on record: MDA-MB-231, 72 h.
In the next experiment the test system is A549. In words: Growth inhibition of human A549 cells after 72 hrs by sulforhodamine B assay. The settings on record: A549, 72 h. Background: The SRB assay estimates cell density from bound dye.
The subject of another experiment is HT-29. In words: Growth inhibition of human HT-29 cells after 72 hrs by sulforhodamine B assay. The settings on record: HT-29, 72 h.

Here are results for three compounds from ChEMBL document CHEMBL1157694, “Synthesis of a new cytotoxic cephalostatin/ritterazine analogue from hecogenin and 22-epi-hippuristanol” (2010).

For `C[C@H]1CC[C@@]2(OC1)O[C@H]1C[C@H]3[C@@H]4CC[C@H]5Cc6nc7c(nc6C[C@]5(C)[C@H]4CC(=O)[C@]3(C)[C@H]1[C@@H]2C)C[C@@H]1CC[C@H]2[C@@H]3C[C@@H]4O[C@]5(C[C@H](C)C(C)(C)O5)[C@](C)(O)[C@@H]4[C@@]3(C)CC(=O)[C@@H]2[C@@]1(C)C7`, the GI50 came out at 2 µM in the experiment with MDA-MB-231, 1.6 µM with A549 and 1.6 µM in the experiment on HT-29.
Consider `C[C@H]1CC[C@@]2(OC1)O[C@H]1C[C@H]3[C@@H]4CC[C@H]5Cc6nc7c(nc6C[C@]5(C)[C@H]4CC(=O)[C@]3(C)[C@H]1[C@@H]2C)C[C@@H]1CC[C@@H]2[C@H](CC(=O)[C@]3(C)[C@@H]4[C@H](C[C@@H]23)O[C@]2(CC[C@H](C)CO2)[C@H]4C)[C@@]1(C)C7`, for which the 50% growth inhibitory concentration (GI50) with MDA-MB-231 was 2.6 µM; with A549, 1.7 µM; with HT-29, 2.1 µM.
Consider `C[C@H]1C[C@]2(O[C@H]3C[C@H]4[C@@H]5CC[C@H]6C[C@H](O)CC[C@]6(C)[C@H]5[C@@H](O)C[C@]4(C)[C@H]3[C@@]2(C)O)OC1(C)C` [EPIHIPPURISTANOL], for which the GI50 in the experiment on MDA-MB-231 stood at 5.6 µM; with A549, 3.2 µM; with HT-29 it was 4.5 µM.

By GI50 is commonly meant the concentration at which growth is held to half of that of the control. Read a low GI50 as more potent growth inhibition.
